Data from publication PMC10176505, “PYK-SubstitutionOME: an integrated database containing allosteric coupling, ligand affinity and mutational, structural, pathological, bioinformatic and computational information about pyruvate kinase isozymes” (Database: The Journal of Biological Databases and Curation, 2023).
Blank lines part the entries; values can stand above or below the compound they belong to.

Columns and labels:
hLPYK [1] = molecular target: T1, hLPYK (Homo sapiens, UniProt P30613); assay: enzyme kinetics, allosteric linkage analysis; assay type: biochemical; conditions: allosteric inhibitor site; effector binding in absence of PEP; read-out: Kix-Ala
T1 construct: gene PKLR; full-length liver isozyme; homotetramer; purified or partially purified
T1 sequence (P30613 1-543 isoform P30613-2): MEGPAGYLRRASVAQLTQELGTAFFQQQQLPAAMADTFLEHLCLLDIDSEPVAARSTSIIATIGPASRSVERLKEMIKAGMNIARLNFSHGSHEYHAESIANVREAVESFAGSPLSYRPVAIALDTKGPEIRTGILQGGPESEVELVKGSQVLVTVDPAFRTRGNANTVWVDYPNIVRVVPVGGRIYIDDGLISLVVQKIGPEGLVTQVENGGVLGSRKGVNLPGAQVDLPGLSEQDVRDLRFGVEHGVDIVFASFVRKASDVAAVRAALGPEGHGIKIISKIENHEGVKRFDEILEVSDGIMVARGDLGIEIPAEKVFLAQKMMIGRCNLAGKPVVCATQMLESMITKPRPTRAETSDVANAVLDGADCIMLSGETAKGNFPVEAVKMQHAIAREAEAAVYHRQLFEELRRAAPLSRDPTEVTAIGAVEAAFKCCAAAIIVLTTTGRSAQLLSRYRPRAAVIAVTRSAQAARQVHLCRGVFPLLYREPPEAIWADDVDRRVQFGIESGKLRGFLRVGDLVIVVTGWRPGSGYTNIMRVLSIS
Description: enzyme kinetics, allosteric linkage analysis on hLPYK | (ii) Kix-Ala, the binding of Ala

hLPYK [2] = molecular target: T1, hLPYK; assay: enzyme kinetics, allosteric linkage analysis; assay type: biochemical; conditions: allosteric activator site; effector binding in absence of PEP
rM1PYK = molecular target: T2, rM1PYK (Oryctolagus cuniculus, UniProt P11974); assay: X-ray crystal structure, […] Å; assay type: binding; conditions: active site of some subunits; may stem from the crystallisation medium
T2 construct: gene PKM; rabbit muscle M1 isozyme; homotetramer; crystal structures
T2 sequence (P11974 2-531): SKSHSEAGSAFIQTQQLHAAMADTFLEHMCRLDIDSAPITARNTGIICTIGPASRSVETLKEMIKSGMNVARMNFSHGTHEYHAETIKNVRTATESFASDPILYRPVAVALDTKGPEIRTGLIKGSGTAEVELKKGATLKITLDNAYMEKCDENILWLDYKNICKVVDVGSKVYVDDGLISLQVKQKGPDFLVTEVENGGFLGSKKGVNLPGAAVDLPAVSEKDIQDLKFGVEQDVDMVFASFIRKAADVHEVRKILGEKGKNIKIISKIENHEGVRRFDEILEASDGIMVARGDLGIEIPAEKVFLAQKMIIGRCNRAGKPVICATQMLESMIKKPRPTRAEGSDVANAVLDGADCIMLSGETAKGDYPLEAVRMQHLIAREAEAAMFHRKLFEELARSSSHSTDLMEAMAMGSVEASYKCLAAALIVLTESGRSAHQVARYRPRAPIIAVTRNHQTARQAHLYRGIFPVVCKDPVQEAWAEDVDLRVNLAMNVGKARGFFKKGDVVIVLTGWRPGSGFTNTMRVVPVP

Kd (hLPYK [1]): 250 µM
Compound: C[C@H](N)C(=O)O [alanine]

Kix-FBP (hLPYK [2]): (iii) Kix-FBP, the binding of Fru-1,6-BP
Compound: O=P(O)(O)OC[C@H]1OC(O)(COP(=O)(O)O)[C@@H](O)[C@@H]1O (stereo partly drawn) [fructose-1,6-bisphosphate]

Compound: O=C(O)CCC(=O)O [succinate]
X-ray crystal structure, 2.2 Å (rM1PYK): active sites are populated by either a phosphonate analogue of PEP or succinate
